Three compounds from paper PMC11286609, “In vitro and in vivo analyses of eFAP: a novel FAP-targeting small molecule for radionuclide theranostics and other oncological interventions” (EJNMMI Radiopharmacy and Chemistry, 2024) can be followed below.

Each structure is given as a SMILES string.

Assay [1] addresses T1, prolyl oligopeptidase (PREP) (Homo sapiens, UniProt P48147).
T1 construct: purchased R&D Systems
T1 sequence (P48147 1-710): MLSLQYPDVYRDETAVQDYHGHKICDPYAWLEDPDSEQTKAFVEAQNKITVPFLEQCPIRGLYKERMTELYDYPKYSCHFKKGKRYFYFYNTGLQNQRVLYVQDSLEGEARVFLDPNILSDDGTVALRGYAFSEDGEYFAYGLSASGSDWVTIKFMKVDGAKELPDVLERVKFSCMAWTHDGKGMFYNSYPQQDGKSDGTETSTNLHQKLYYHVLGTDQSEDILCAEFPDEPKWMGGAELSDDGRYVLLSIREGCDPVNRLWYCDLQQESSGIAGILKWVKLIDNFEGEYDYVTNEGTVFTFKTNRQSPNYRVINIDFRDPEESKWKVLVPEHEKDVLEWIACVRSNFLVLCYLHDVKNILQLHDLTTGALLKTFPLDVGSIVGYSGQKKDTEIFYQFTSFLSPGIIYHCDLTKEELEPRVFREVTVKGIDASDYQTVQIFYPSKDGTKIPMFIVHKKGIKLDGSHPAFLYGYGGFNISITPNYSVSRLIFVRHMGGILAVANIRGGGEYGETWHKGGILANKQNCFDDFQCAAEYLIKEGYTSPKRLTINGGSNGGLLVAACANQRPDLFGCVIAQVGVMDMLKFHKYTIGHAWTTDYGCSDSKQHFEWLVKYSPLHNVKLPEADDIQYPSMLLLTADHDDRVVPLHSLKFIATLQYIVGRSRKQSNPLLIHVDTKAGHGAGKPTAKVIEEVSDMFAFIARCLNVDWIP
The assay can be described thus: Enzymatic inhibition assay, PREP. It counts as biochemical. The settings on record: for IC50: recombinant PREP, n = 3, picture: nM ± 95% CI; for SI PREP/huFAP: selectivity index, IC50 PREP / IC50 huFAP. The method, then: (§1) All enzymatic assays were performed in black 384-well plates, and enzymatic activity was measured on a microplate reader, monitoring the fluorescence at λEX 350 nm/λEM 485 nm. […] Val-boroPro (10^− 4 M) and assay buffer served as a positive and negative control, respectively. To measure inhibition of PREP, 50 µL of the reaction mixture containing 1 µM Z-Gly-Pro-AMC and 10 ng PREP (R&D Systems; Minneapolis, MN, USA) were used. The enzymatic assay of DPP4 contained substrate (100 µM), DPP4 (Abcam; Cambridge, UK) (10 nM), assay buffer, and increasing concentrations of the inhibitors (10^− 10 M to 10^− 4 M). Sitagliptin (10^− 4 M) and assay buffer were used as a positive and negative control, respectively. H-Gly-Pro-AMC (100 µM) in assay buffer was used as a baseline control. The plates were analyzed in a Hidex Sense Microplate reader (Hidex; Turku, Finland) at 37 °C under dark conditions for 1 h (huFAP), 2 h (muFAP), or 30 min (PREP, DPP4). For all assays, the components were kept on ice before plating.
(§2) All statistical analyses were performed with GraphPad Prism version 9.0 (San Diego, California USA). All IC50 values were determined using a non-linear regression Log(inhibitor) vs. response analysis with variable slope (four parameters). For the in vivo results outliers were identified by a ROUT test (Q = 1%) and excluded. Next, a two-tailed student’s t-test was performed (*p < 0.05, **p < 0.01, ***p < 0.001). All experiments were performed in triplicate and repeated at least three times.

In another assay the target is T2, muFAP (Mus musculus, UniProt P97321).
T2 sequence (P97321 1-761): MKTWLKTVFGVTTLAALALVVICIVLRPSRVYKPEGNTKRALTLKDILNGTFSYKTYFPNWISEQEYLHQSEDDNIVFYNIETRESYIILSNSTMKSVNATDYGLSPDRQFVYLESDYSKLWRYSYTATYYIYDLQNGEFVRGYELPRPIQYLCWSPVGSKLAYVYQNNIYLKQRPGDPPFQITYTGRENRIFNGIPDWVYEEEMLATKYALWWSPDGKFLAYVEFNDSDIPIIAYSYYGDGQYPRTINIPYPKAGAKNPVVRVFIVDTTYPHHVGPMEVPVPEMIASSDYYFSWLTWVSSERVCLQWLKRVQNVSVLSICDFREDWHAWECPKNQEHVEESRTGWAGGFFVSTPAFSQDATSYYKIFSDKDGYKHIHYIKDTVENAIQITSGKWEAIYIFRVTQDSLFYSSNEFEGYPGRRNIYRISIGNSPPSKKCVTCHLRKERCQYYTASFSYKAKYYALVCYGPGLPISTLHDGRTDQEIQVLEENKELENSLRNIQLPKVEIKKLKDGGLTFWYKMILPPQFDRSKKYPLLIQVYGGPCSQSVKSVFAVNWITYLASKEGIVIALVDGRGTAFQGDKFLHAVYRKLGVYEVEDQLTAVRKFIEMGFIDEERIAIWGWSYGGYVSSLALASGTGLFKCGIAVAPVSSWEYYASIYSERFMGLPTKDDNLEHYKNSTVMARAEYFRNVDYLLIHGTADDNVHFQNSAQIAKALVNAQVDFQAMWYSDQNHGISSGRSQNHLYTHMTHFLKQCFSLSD
The assay can be described thus: Recombinant enzymatic inhibition assay, muFAP (Z-Gly-Pro-AMC). It counts as biochemical, murine. The settings on record: n = 3, picture: nM ± 95% CI. The method, then: as §1, §2

Regarding `CN1/C(=C/C=C/C=C/C2=[N+](CCCCCC(=O)NCCCOc3cccc4c(C(=O)NCC(=O)N5CC(F)(F)C[C@H]5C#N)ccnc34)c3ccc(S(=O)(=O)[O-])cc3C2(C)C)C(C)(C)c2cc(S(=O)(=O)O)ccc21` [eFAP-7, 1-(6-((3-((4-((2-((S)-2-cyano-4,4-difluoropyrrolidin-1-yl)-2-oxoethyl)carbamoyl)quinolin-8-yl)oxy)propyl)amino)-6-oxohexyl)-3,3-dimethyl-5-sulfo-2-((1E,3E)-5-((E)-1,3,3-trimethyl-5-sulfoindolin-2-ylidene)penta-1,3-dien-1-yl)-3H-indol-1-ium], in assay [1], the IC50 turned out to be 475 ± 104 nM and the “SI PREP/huFAP” value worked out at 112.3. Besides, the IC50 on muFAP was 4.56 ± 0.2 nM.
Take `N#C[C@@H]1CC(F)(F)CN1C(=O)CNC(=O)c1ccnc2c(OCCCNC(=O)CN3CCN(CC(=O)O)CCN(CC(=O)O)CCN(CC(=O)O)CC3)cccc12` [eFAP-6, (S)-2,2',2''-(10-(2-((3-((4-((2-(2-cyano-4,4-difluoropyrrolidin-1-yl)-2-oxoethyl)carbamoyl)quinolin-8-yl)oxy)propyl)amino)-2-oxoethyl)-1,4,7,10-tetraazacyclododecane-1,4,7-triyl)triacetic acid]: in assay [1], the IC50 turned out to be 161 ± 53.6 nM and the “SI PREP/huFAP” value was determined as 138.6. The 50% inhibitory concentration (IC50) at muFAP was determined as 0.58 ± 0.02 nM.
On to `CN(CCCN1CCN(C(=O)CN2CCN(CC(=O)O)CCN(CC(=O)O)CCN(CC(=O)O)CC2)CC1)c1ccc2nccc(C(=O)NCC(=O)N3CC(F)(F)C[C@H]3C#N)c2c1` [FAPI-46, reference compound], for which the values for the IC50 (in assay [1]; on muFAP) were 3480 ± 172 nM and 1.55 ± 1.2 nM, respectively.

The term IC50 denotes the point on the concentration scale where inhibition reaches its midpoint.
